Results as given in patent US11904049B2, “Pharmaceutical formulation” (priority 2017, dated 2024).
Where a name gives a salt, the structure may show the parent alone.

Columns and labels:
[1] = in vivo; conditions: male, beagle, dog, plasma, intravenous, 0.143 mg/kg
[2] = cited from earlier work

C=CCN1CC[C@]23c4c5ccc(O)c4O[C@H]2C(=O)CC[C@@]3(O)[C@H]1C5 [Intravenous, Naloxone HCl]
AUC(0-t) [1]: 20.8 ng·h/mL
Cmax [1]: 29.4 ng/mL
Tmax [1]: 6.7 min
concentration at 5 min [1]: 28.2 ng/mL

C=CCN1CC[C@]23c4c5ccc(O)c4O[C@H]2C(=O)CC[C@@]3(O)[C@H]1C5 [naloxone]
strongest basic pKa [2]: 10.07
pKa ([2]; naloxone as a base): 7.84
